Measurements published in patent US8202863B2 (Aventis Pharmaceuticals Inc., priority 2005, dated 2012).
pIC50: −log10 of the molar value.

Biological target: human h-PGDS (Homo sapiens, UniProt O60760)
Test: Enzyme Immunoassay (EIA) method (Assay 2)
Assay type: biochemical
Settings: assigned
Source text: The compounds of the present invention can be tested for enzymatic inhibiting activity against PGD2 Synthase according to either one of the following assays.
Assay 2: Enzyme Immunoassay (EIA) Method
• a. Preparation of 0.1M K2HPO4/KH2PO4 buffer (pH ˜7.4) • Prepare 0.1 M KH2PO4 from 1M KH2PO4 (Sigma, Cat# P-8709) • Prepare 0.1 M K2HPO4 from powder of K2HPO4 (Fisher, BP363-500) • Mix 0.1 M K2HPO4 with 0.1 M KH2PO4 to adjust pH to 7.4. • b. Preparation of 0.5% γ-globulin • Add 0.1 g of γ-globulin (Sigma, Cat# G-5009) to 20 mL 0.1 M K2HPO4/KH2PO4 buffer (pH ˜7.4) and make 1-ml/vial aliquots and store in −80° C. • c. Preparation of 100 mM GSH • Add 307 mg of GSH (Sigma, Cat# G-6529) to 10 mL 0.1 M K2HPO4/KH2PO4 buffer (pH ˜7.4) and store at −80° C. • d. Preparation of Reaction buffer: • 198 mL of 0.1M K2HPO4/KH2PO4 buffer (pH ˜7.4) • 2 mM GSH—Prepared from 100 mM GSH • 0.4 g Glycerol • 2 mL of 0.5% γ-globulin • Add 0.4 g of glycerol and 2 mL of 0.5% γ-globulin to 198 mL of 0.1 M K2HPO4/KH2PO4 • buffer (pH7.4). • Add 0.4 mL of 100 mM GSH to 19.6 ml reaction buffer before the assay (enough for two 96-well plates). • e. Preparation of FeCl2/citric acid stopping solution: (8 mg/mL FeCl2, 0.1 M citric acid) • Add 40 mg fresh FeCl2 (IGN, Cat# 158046) to 5 ml 0.1 M citric acid (Sigma, Cat# C0759). • f. Preparation of MOX reagent: • 10% EtOH-Add 1 mL of EtOH to 9 mL of ultra pure H2O • Dissolve 0.1 g of methoxylamine (Cayman, Cat# 400036/) in 10% EtOH (10 mL). • Add 0.82 g of sodium acetate (Cayman, Cat#400037) to MOX solution and dissolve. II. Materials and Method • Dimethylsulfoxide (DMSO; Sigma; Cat# D2650) • Prostaglandin D2-MOX express EIA kit (Caymen Chemical, Catalog No. 500151)
Before the assay, cool down 10 mL of acetone in polypropylene tubes and empty 96 well plates in ice. All the procedures except compound dilution are performed on ice.
• 1. Dilute Compound in DMSO
• 2. Dilute 2 μL of each above concentration of compound to 38 μL of reaction buffer in 96-well plates and mix. IV. Enzyme and Substrate Solution Preparation • 1. Preparation of 0.39 ng/μL enzyme solution (0.35 ng/μL at final after compound addition). • Mix 4 μL of 4 mg/mL human h-PGDS with 396 μL of reaction buffer (to give enzyme concentration 40 μg/mL). Add 46.8 μL of 40 μg/mL h-PGDS to 4.753 mL of reaction buffer to give a total volume of 4.8 mL • 2. Preparation of Substrate Solution (PGH2): Add 0.375 mL of 0.1 mg/mL of PGH2 to 1.625 mL acetone. V. Enzyme Reaction: • 1. Add 60 μL of enzyme solution to compound well and positive control (without compound) in U-bottom polypropylene plate on ice. • 2. Add 60 μL of reaction buffer and 6.6 μL of 5% DMSO in reaction buffer into negative control wells in the plate. • 3. Add 6.6 μL of diluted compound in reaction buffer to the compound wells and mix. • 4. Add 6.6 μL of 5% DMSO in reaction buffer to the positive control well. • 5. Incubate the plate in ice for at least 30 min. • 6. Add 20 μL of substrate (PGH2) solution to compound, negative and positive control wells in the U-bottom 96 well plate on ice. • 7. Dry the plate in cold room for about 25-28 min. • 8. Pipette 45 μL of enzyme solution (above) into 96-wells with dried PGH2 and mix 3 times. Incubate on the ice for 1 min. • 9. Add 45 μL of FeCl2 solution into each wells and mix. • 10. Add 90 μL of MOX solution and mix. • 11. Incubate for 30 min at 60° C. • 12. Dilute the samples 2500× with EIA buffer. VI. EIA assay • Perform the assay according to the procedure in EIA kit provided by Cayman. […]

Sequence of human h-PGDS (O60760 whole entry): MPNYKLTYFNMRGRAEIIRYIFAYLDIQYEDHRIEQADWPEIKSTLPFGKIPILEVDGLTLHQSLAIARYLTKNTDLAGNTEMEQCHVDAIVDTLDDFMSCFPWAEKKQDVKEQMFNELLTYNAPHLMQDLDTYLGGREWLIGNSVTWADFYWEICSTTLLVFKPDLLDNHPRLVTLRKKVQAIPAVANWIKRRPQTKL

Row | Structure (SMILES) | pIC50
1 | O=C(NCc1cccc(S(=O)(=O)NC2CC2)c1)c1cnc(-c2cccc(F)c2)nc1 [Example 48, 2-(3-Fluoro-phenyl)-pyrimidine-5-carboxylic acid 3-cyclopropylsulfamoyl-benzylamide] | 6.88
2 | O=C(NCc1ccccc1)c1cnc(-c2ccccc2)nc1 [Example 1, 2-Phenyl-pyrimidine-5-carboxylic acid benzylamide] | 8.00
3 | NS(=O)(=O)c1ccc(NC(=O)c2cnc(-c3ccccc3)nc2)cc1 [Example 30, 2-Phenyl-pyrimidine-5-carboxylic acid (4-sulfamoyl-phenyl)-amide] | 8.30
4 | CN1CCC(NC(=O)c2cnc(-c3ccccc3)nc2)CC1 [Example 38, 2-Phenyl-pyrimidine-5-carboxylic acid (1-methyl-piperidin-4-yl)-amide] | 7.02
5 | NS(=O)(=O)c1cccc(CNC(=O)c2cnc(-c3cccc(F)c3)nc2)c1 [Example 55, 2-(3-Fluoro-phenyl)-pyrimidine-5-carboxylic acid 3-sulfamoyl-benzylamide] | 7.51
6 | O=C(NCc1cccc(S(=O)(=O)NCCCO)c1)c1cnc(-c2cccc(F)c2)nc1 [Example 49, 2-(3-Fluoro-phenyl)-pyrimidine-5-carboxylic acid 3-(3-hydroxy-propylsulfamoyl)-benzylamide] | 7.66
7 | CCNS(=O)(=O)c1cccc(CNC(=O)c2cnc(-c3cccc(F)c3)nc2)c1 [Example 45, 2-(3-Fluoro-phenyl)-pyrimidine-5-carboxylic acid 3-ethylsulfamoyl-benzylamide] | 7.24
8 | COCCCNS(=O)(=O)c1cccc(CNC(=O)c2cnc(-c3cccc(F)c3)nc2)c1 [Example 51, 2-(3-Fluoro-phenyl)-pyrimidine-5-carboxylic acid 3-(3-methoxy-propylsulfamoyl)-benzylamide] | 7.43
9 | CC(C)(CO)NS(=O)(=O)c1cccc(CNC(=O)c2cnc(-c3cccc(F)c3)nc2)c1 [Example 54, 2-(3-Fluoro-phenyl)-pyrimidine-5-carboxylic acid 3-(2-hydroxy-1,1-dimethyl-ethylsulfamoyl)-benzylamide] | 7.22
10 | CNS(=O)(=O)c1cccc(CNC(=O)c2cnc(-c3cc(F)cc(F)c3)nc2)c1 [Example 40, 2-(3,5-Difluoro-phenyl)-pyrimidine-5-carboxylic acid 3-methylsulfamoyl-benzylamide] | 7.31

Continued, values first:

Row | pIC50 | Structure (SMILES)
11 | 7.47 | Cc1nc(-c2cccc(F)c2)ncc1C(=O)NCc1cccc(CS(=O)(=O)NC(C)C)c1 [Example 71, 2-(3-Fluoro-phenyl)-4-methyl-pyrimidine-5-carboxylic acid 3-(isopropylsulfamoyl-methyl)-benzylamide]
12 | 7.46 | CN(C)CC(C)(C)CNS(=O)(=O)c1cccc(CNC(=O)c2cnc(-c3cccc(F)c3)nc2)c1 [Example 65, 2-(3-Fluoro-phenyl)-pyrimidine-5-carboxylic acid 3-(3-dimethylamino-2,2-dimethyl-propylsulfamoyl)-benzylamide]
13 | 7.35 | CN(C)CCNS(=O)(=O)c1cccc(CNC(=O)c2cnc(-c3cccc(F)c3)nc2)c1 [Example 63, 2-(3-Fluoro-phenyl)-pyrimidine-5-carboxylic acid 3-(2-dimethylamino-ethylsulfamoyl)-benzylamide]
14 | 7.31 | Cc1nc(-c2cccc(F)c2)ncc1C(=O)NCc1cccc(CNS(C)(=O)=O)c1 [Example 68, 2-(3-Fluoro-phenyl)-4-methyl-pyrimidine-5-carboxylic acid 3-(methanesulfonylamino-methyl)-benzylamide]
15 | 6.97 | CNS(=O)(=O)c1cccc(CNC(=O)c2cnc(-c3cccc(F)c3)nc2C)c1 [Example 85, 2-(3-Fluoro-phenyl)-4-methyl-pyrimidine-5-carboxylic acid 3-methylsulfamoyl-benzylamide]
16 | 7.09 | CN(C)S(=O)(=O)CCNC(=O)c1cnc(-c2ccccc2)nc1 [Example 109, 2-Pheny-pyrimidine-5-carboxylic acid (2-dimethylsulfamoyl-ethyl)-amide]
17 | 7.09 | Cc1nc(-c2ncc(C(=O)NC3CCOCC3)cn2)cs1 [Example 118, 2-(2-Methyl-thiazol-4-yl)-pyrimidine-5-carboxylic acid (tetrahydro-pyran-4-yl)-amide]
18 | 7.26 | NS(=O)(=O)CCNC(=O)c1cnc(-c2ccccc2)nc1 [Example 108, 2-Pheny-pyrimidine-5-carboxylic acid (2-sulfamoyl-ethyl)-amide]
19 | 6.58 | NS(=O)(=O)c1ccc(CNC(=O)c2cnc(-n3cccn3)nc2)cc1 [Example 117, 2-Pyrazol-1-yl-pyrimidine-5-carboxylic acid 4-sulfamoyl-benzylamide]
20 | 7.43 | O=C(NCc1cccc(S(=O)(=O)NCCN2CCOCC2)c1)c1cnc(-c2cccc(F)c2)nc1 [Example 56]
21 | 8.02 | CNS(=O)(=O)c1cccc(CNC(=O)c2cnc(-c3cccc(F)c3)nc2)c1 [Example 97, 2-(3-Fluoro-phenyl)-pyrimidine-5-carboxylic acid 3-methylsulfamoyl-benzylamide]
22 | 7.52 | O=C(Nc1nc(-c2ccccc2)ns1)c1cnc(-c2ccccc2)nc1 [Example 110, 2-Phenyl-pyrimidine-5-carboxylic acid (3-phenyl-[1,2,4]thiadiazol-5-yl)-amide]
